Laboratory results: patent publication US9532997B2, “Compositions and methods for promoting intestinal stem cell function” (Whitehead Institute for Biomedical Research, priority 2012, dated 2017)
“Also recorded” adds a separate entry of the source.

Experiments:
Bst-1 = Bst-1 protein expression by immunoblots of crypts and immunostains of Paneth cells; format: in vivo, mice; details: FIG. 4c
Experimental: (§1) Tissues were fixed in 10% formalin, paraffin embedded, and sectioned. Antigen retrieval was performed with Borg Decloaker RTU solution (Biocare Medical) in a pressurized Decloaking Chamber (Biocare Medical) for 3 minutes. Antibodies: rat anti-BrdU (1:2000; Abeam 6326), rabbit phospho-S6 Ser235/236 (1:500, CST 4858), rabbit cleaved caspase 3 (1:500; CST 9664), rabbit chromogranin A (1:3000, Abeam 15160), rabbit Lysozyme (1:2000; Thermo), rabbit Bst-1 (1:1000, Abeam 74301) and mouse Bst-1 (1:100 to 500, BD Pharmingen). For mouse Bst-1, the M.O.M (mouse on mouse) kit was used according to the manufacturer's instructions (Vector labs PK-2200). Biotin conjugated secondary donkey anti-rabbit or rat antibodies were used from Jackson ImmunoResearch. The Vectastain Elite ABC immunoperoxidase detection kit (Vector Labs PK-6101) followed by Dako Liquid DAB+ Substrate (Dako) was used for visualization. For immunofluorescence Alexa Fluor 568 secondary antibodies (Invitrogen) were used. All antibody incubations were performed with Common Antibody Diluent (Biogenex).
Antibodies: rabbit anti phospho-T389 S6K1, phospho-S240/244 S6, S6K1, and S6 from CST; rabbit Bst-1 (ab74301) from Abeam; mouse anti_-actin (clone AC-15) from Sigma. […] Proteins extracts were denatured by the addition of sample buffer, boiled for […], resolved by SDS-PAGE, and analyzed by immunoblotting.

[1] = test system: Lgr5hi ISCs combined with Paneth cells; experiment: Organoid formation of Lgr5hi ISCs cocultured with Paneth cells from treated mice; format: in vivo; details: for organoid formation of ISCs combined with Paneth cells from rapamycin-treated mice vs vehicle/AL Paneth cells: n=3-5, FIG. 3l, FIG. 13c
Text: Mice were housed in the Unit for Laboratory Animal Medicine at the Whitehead Institute for Biomedical Research. Lgr5-EGFP-IRES-CreERT2 mice (Strain name: B6.129P2-Lgr5tm1(cre/ERT2)Cle/J, Stock Number: 008875) were purchased from Jackson Laboratories. UbiquitinC-CreERT2 mice were obtained from the Jackson Laboratory (Strain Name: B6; 129S-Tg(UBC-cre/ERT2)1Ejb/J, Stock Number: 007001). Rictor floxed mice were generated as described in^27 and backcrossed to C57BL/6 for at least 6 generations. TSC1^loxp/loxp mice were the generous gift of D. Kwiatkowski (Harvard Medical School) and backcrossed to C57BL/6 for at least 6 generations. Rosa26-CreERT2 mice (Rosa26 or R26) were obtained from the Jackson Laboratory (Strain 15 Name: B6.129-Gt(ROSA)26Sor^iml(cre/ERT2)Tyj/J, Stock Number 008463). CR was achieved by providing individual or paired mice a daily portion of a chow diet fortified with vitamins and minerals amounting to 60% of the daily food intake of their ad libitum counterparts^20. All adult mice used in CR experiments were between the ages of 10 to 24 weeks and were sacrificed prior to their daily feeding. Rictor or TSC1 was excised by treatment with tamoxifen suspended in corn or sunflower seed oil (Spectrum) at a concentration of 10 mg/mL, and 200 μl per 25 g of body weight was injected intraperitoneally into mice once daily for 5-7 days. […] Mice were allowed to recover for at least 7 days after the last tamoxifen injection prior to any experiments. In vivo fate mapping in Lgr5-EGFP-IRES-reERT2; Rosa26loxpstoploxp-LacZ compound mice was done with a single injection of tamoxifen given at 200 μl per 25 g. As described previously^28, Rapamycin (LC Laboratories) was administered by intraperitoneal injection for 7 to 28 consecutive doses at 4 mg/kg. It was reconstituted in absolute ethanol at 10 mg/ml and diluted in 5% Tween-80 (Sigma) and 5% PEG-400 (Hampton Research) before injection. The final volume of all injections was 200 μl. Regular insulin (Lilly) was administered at 0.75 U/kg diluted in PBS 20 minutes prior to sacrificing fasted mice.
Small intestines were removed and the fat/mesentery was dissected away. The intestinal lumen was washed with ice cold PBS (Mg—/Ca—) using a 18 G feeding needle (Roboz FN-7905) until the intestines appeared white/pink. They were then opened longitudinally. The mucous was removed by gently rubbing the intestine between fingers in cold PBS. The intestines were cut into 3 to 5 mm fragments and placed into 50 ml conical tubes that were fill with ice cold 30 ml of PBS (Mg—/Ca—)/EDTA (10 mM). The samples were incubated and shook intermittently on ice for 30 minutes continuously discarding and replacing (at least 3 times) the supernatant. The fragments were then continually resuspended with ice cold 30 ml PBS (Mg—/Ca—)/EDTA (10 mM) and intermittently shook on ice for 10 minutes, discarding the supernatant again for 3 times. The fragments were resuspended again with ice cold 30 ml PBS (Mg—/Ca—)/EDTA (10 mM) and incubated and intermittently shook while waiting on ice for 20 to 40 minutes. The samples were then triturated with a 10 ml pipette 1 to 2 times, and the contents were filtered twice through a 70-μm mesh (BD Falcon) into a 50 ml conical tube to remove villous material and tissue fragments. […] Crypts were removed from this step for crypt culture experiments and embedded in matrigel with crypt culture media. For ISC isolation, the crypt suspensions were centrifuged for 5 minutes at 250 g (4 C or room temperature). The pellets were gently resuspended in 1.0 ml of undiluted TrypLE Express (Invitrogen)+120 μl of DNase I (10 U/μl, Roche) and transferred to 15 ml conical tubes. The samples were incubated in a 32° C. water bath for 1.25 to 2 minutes, were not titurated, and were then placed on ice. 12 ml of cold SMEM was added to each sample and were gently triturated twice. The samples were then centrifuged for 5 minutes at 250 g.

cleaved caspase 3 = experiment: Enterocyte apoptosis, cleaved caspase 3 immunostain; format: in vivo, mice; details: n=3 per group, FIG. 7
Experimental: as §1

For `CO[C@H]1C[C@@H]2CC[C@@H](C)[C@@](O)(O2)C(=O)C(=O)N2CCCC[C@H]2C(=O)O[C@H]([C@H](C)C[C@@H]2CC[C@@H](O)[C@H](OC)C2)CC(=O)[C@H](C)/C=C(\C)[C@@H](O)[C@@H](OC)C(=O)[C@H](C)C[C@H](C)/C=C/C=C/C=C/1C` [Rapamycin, sirolimus], the Bst-1 protein expression (Bst-1; crypts (immunoblots) and Paneth cells (immunostains) of treated mice, d) was “increased”, the “SDS-PAGE mobility of Bst-1” value (Bst-1; immunoblots of crypts) was “affected the SDS-PAGE mobility of Bst-1” and the “organoids per AL Lgr5hi ISC mixed with Paneth cells from treated mice, increase vs vehicle” value ([1]; 4 mg/kg) was ~2 fold. For the same molecule, the “effect of combination of CR and rapamycin in ISC-Paneth cell coculture” value ([1]; CR+R treated mice, FIG. 3j) was “non-additive”, the “direct effect on ISC function (clonogenicity of ISCs from treated vs vehicle mice)” value ([1]; FIG. 3l) was “no direct effect on ISC function” and the “secondary organoid bodies derived from rapamycin-treated Paneth cells vs vehicle” value ([1]; FIG. 3m) was “larger and more complex”. The “stability of augmented capacity of Paneth cells to promote ISC self-renewal” value ([1]; Paneth cells placed in nutrient rich media that activates mTORC1) was “maintain their augmented capacity to promote ISC self-renewal”, the “organoid formation of ISCs combined with Paneth cells from rapamycin-treated mice vs vehicle/AL Paneth cells” value [1] was “significantly increased” and the “organoid formation of ISCs combined with Paneth cells from rapamycin-treated mice vs vehicle/AL Paneth cells” value ([1]; listed as rapamycin) was “prominent increase; also recorded: significantly increased”. The “cleaved caspase 3 (enterocyte apoptosis) vs AL controls” value (cleaved caspase 3) was “no increase”.
